Numbers after ± are expanded uncertainties.
Details: 313.14 K, Liquid, Vibrating tube method

CCCCCCCCCC [decane]
Details | mass density [kg/m3]
9156 kPa | 722.3 ± 2
9171 kPa | 722.4 ± 2
9194 kPa | 722.3 ± 2
9210 kPa | 722.4 ± 2
9227 kPa | 722.3 ± 2
9245 kPa | 722.2 ± 2
9261 kPa | 722.3 ± 2
9284 kPa | 722.4 ± 2
9300 kPa | 722.4 ± 2
9323 kPa | 722.5 ± 2
9338 kPa | 722.6 ± 2
9358 kPa | 722.5 ± 2
9374 kPa | 722.6 ± 2
9392 kPa | 722.5 ± 2
9410 kPa | 722.6 ± 2
9431 kPa | 722.4 ± 2
9447 kPa | 722.6 ± 2
9463 kPa | 722.7 ± 2
9479 kPa | 722.4 ± 2
9503 kPa | 722.6 ± 2
9522 kPa | 722.6 ± 2
9538 kPa | 722.5 ± 2
9554 kPa | 722.6 ± 2
9574 kPa | 722.7 ± 2
9587 kPa | 722.7 ± 2
9607 kPa | 722.6 ± 2
9627 kPa | 722.6 ± 2
9646 kPa | 722.6 ± 2
9674 kPa | 722.5 ± 2
9694 kPa | 722.8 ± 2
9717 kPa | 722.7 ± 2
9733 kPa | 722.8 ± 2
9747 kPa | 722.7 ± 2
9770 kPa | 722.9 ± 2
9785 kPa | 722.8 ± 2
9807 kPa | 722.8 ± 2
9828 kPa | 722.9 ± 2
9851 kPa | 722.9 ± 2
9869 kPa | 722.8 ± 2
9892 kPa | 722.9 ± 2
9913 kPa | 722.9 ± 2
9930 kPa | 723 ± 2
9945 kPa | 722.9 ± 2
9970 kPa | 722.9 ± 2
9985 kPa | 722.9 ± 2
10007 kPa | 722.8 ± 2
10022 kPa | 723 ± 2
10046 kPa | 723 ± 2
10062 kPa | 723 ± 2
10088 kPa | 723 ± 2
10107 kPa | 723 ± 2
10128 kPa | 723.1 ± 2
10147 kPa | 723.1 ± 2
10166 kPa | 723 ± 2
10182 kPa | 723.1 ± 2
10199 kPa | 723.1 ± 2
10221 kPa | 723.1 ± 2
10234 kPa | 723.2 ± 2
10262 kPa | 723.3 ± 2
10278 kPa | 723.1 ± 2
10295 kPa | 723.2 ± 2
10317 kPa | 723.1 ± 2
10340 kPa | 723.2 ± 2
10361 kPa | 723.2 ± 2
10381 kPa | 723.2 ± 2
10400 kPa | 723.3 ± 2
10421 kPa | 723.3 ± 2
10437 kPa | 723.4 ± 2
10454 kPa | 723.3 ± 2
10483 kPa | 723.4 ± 2
10497 kPa | 723.3 ± 2
10520 kPa | 723.3 ± 2
10540 kPa | 723.4 ± 2
10567 kPa | 723.5 ± 2
10593 kPa | 723.4 ± 2
10616 kPa | 723.5 ± 2
10634 kPa | 723.5 ± 2
10655 kPa | 723.6 ± 2
10673 kPa | 723.6 ± 2
10694 kPa | 723.6 ± 2
10718 kPa | 723.6 ± 2
10739 kPa | 723.6 ± 2
10757 kPa | 723.6 ± 2
10781 kPa | 723.5 ± 2
10805 kPa | 723.6 ± 2
10821 kPa | 723.7 ± 2
10843 kPa | 723.6 ± 2
10861 kPa | 723.7 ± 2
10876 kPa | 723.6 ± 2
10895 kPa | 723.7 ± 2
10916 kPa | 723.7 ± 2
10935 kPa | 723.7 ± 2
10960 kPa | 723.6 ± 2
10988 kPa | 723.7 ± 2
11007 kPa | 723.8 ± 2
11027 kPa | 723.8 ± 2
11049 kPa | 723.8 ± 2
11070 kPa | 723.9 ± 2
11096 kPa | 723.8 ± 2
11115 kPa | 723.9 ± 2
11141 kPa | 723.9 ± 2
11164 kPa | 723.9 ± 2
11184 kPa | 723.9 ± 2
11210 kPa | 723.9 ± 2
11236 kPa | 723.9 ± 2
11260 kPa | 724 ± 2
11286 kPa | 724 ± 2
11306 kPa | 724.1 ± 2
11326 kPa | 724 ± 2
11344 kPa | 724.1 ± 2
11361 kPa | 723.9 ± 2
11385 kPa | 724.2 ± 2
11406 kPa | 724 ± 2
11429 kPa | 724 ± 2
11459 kPa | 724 ± 2
11480 kPa | 724 ± 2
11497 kPa | 724.2 ± 2
11518 kPa | 724.2 ± 2
11549 kPa | 724.3 ± 2
11570 kPa | 724.3 ± 2
11592 kPa | 724.1 ± 2
11609 kPa | 724.3 ± 2
11631 kPa | 724.3 ± 2
11661 kPa | 724.2 ± 2
11689 kPa | 724.3 ± 2
11711 kPa | 724.5 ± 2
11743 kPa | 724.4 ± 2
11765 kPa | 724.3 ± 2
11794 kPa | 724.4 ± 2
11820 kPa | 724.4 ± 2
11852 kPa | 724.4 ± 2
11886 kPa | 724.5 ± 2
11915 kPa | 724.5 ± 2
11945 kPa | 724.4 ± 2
11976 kPa | 724.6 ± 2
12006 kPa | 724.5 ± 2
12029 kPa | 724.6 ± 2

Source: the NIST ThermoML archive (doi:10.1021/je800110r)
